Test results from patent publication US9611248B2, “Chemical compounds” (Syngenta Participations AG, priority 2013, dated 2017).

What follows are molecules tested on a variety of test species (assay: Post-emergence herbicidal activity). Settings: rate 250 g/ha, evaluated after 13 days.
Assay type: in vivo
Parameters: key to ABUTH (Abutilon theophrasti) damage score / AMARE (Amaranthus retroflexus) damage score / ALOMY (Alopecurus myosuroides) damage score / ECHCG (Echinochloa crus-galli) damage score / ZEAMX (Zea mays) damage score / SOLNI (Solanum nigrum) damage score: 0 = no damage to plant, 5 = total damage to plant
Procedure: Seeds of a variety of test species were sown in standard soil in pots. After 8 days cultivation (post-emergence) under controlled conditions in a glasshouse (at 24/16° C., day/night; 14 hours light; 65% humidity), the plants were sprayed with an aqueous spray solution derived from the formulation of the technical active ingredient in acetone/water (50:50) solution containing 0.5% Tween 20 (polyoxyethelyene sorbitan monolaurate, CAS RN 9005-64-5). The test plants were then grown in a glasshouse under controlled conditions (at 24/16° C., day/night; 14 hours light; 65% humidity) and watered twice daily. After 13 days, the test was evaluated (5=total damage to plant; 0=no damage to plant, NC=not captured).

| SMILES | ABUTH (Abutilon theophrasti) damage score | ALOMY (Alopecurus myosuroides) damage score | AMARE (Amaranthus retroflexus) damage score | ECHCG (Echinochloa crus-galli) damage score | SETFA (Setaria faberi) damage score | ZEAMX (Zea mays) damage score |
| --- | --- | --- | --- | --- | --- | --- |
| COC1=C(C)C(=O)N(c2cc(C(F)(F)F)c(OC3CCC3)cn2)C1O (stereo not drawn) [AD75] | 5 | 4 | 5 | 2 | 4 | 1 |
| COC1=C(C)C(=O)N(c2cc(C(F)(F)F)c(OCCc3ccsc3)cn2)C1O (stereo not drawn) [AD87] | 4 | 3 | 5 | 2 | 3 | 1 |

Same assay, conditions: rate 1000 g/ha, evaluated after 13 days

| SMILES | ABUTH (Abutilon theophrasti) damage score | ALOMY (Alopecurus myosuroides) damage score | AMARE (Amaranthus retroflexus) damage score | ECHCG (Echinochloa crus-galli) damage score | SETFA (Setaria faberi) damage score | ZEAMX (Zea mays) damage score | SOLNI (Solanum nigrum) damage score |
| --- | --- | --- | --- | --- | --- | --- | --- |
| COC1=C(C)C(=O)N(c2cc(C(F)(F)F)c(C#C[Si](C)(C)C)cn2)C1O (stereo not drawn) [AD15, 2-hydroxy-3-methoxy-4-methyl-1-[4-(trifluoromethyl)-5-(2-trimethylsilylethynyl)-2-pyridyl]-2H-pyrrol-5-one] | 3 | 3 | 5 | 4 | 5 | 2 | – |
| COC1=C(C)C(=O)N(c2cc(C(C)(C)C)c(-c3ccc(F)cc3)nn2)C1O (stereo not drawn) [BD9] | 2 | 3 | 5 | 2 | 4 | 1 | – |
| COC1=C(C)C(=O)N(c2cc(C(F)(F)F)c(OCC(C)C)cn2)C1O (stereo not drawn) [AD56] | 5 | 5 | 5 | 5 | 5 | 0 | – |
| COC1=C(C)C(=O)N(c2cc(C)c(Cl)nn2)C1O (stereo not drawn) [BD11] | 4 | 2 | 2 | 1 | 2 | 0 | – |
| COC1=C(C)C(=O)N(c2cc(C(F)(F)F)c(-c3ccccc3[N+](=O)[O-])cn2)C1O (stereo not drawn) [AD129] | 5 | 2 | 5 | 4 | 4 | 2 | – |
| COC1=C(C)C(=O)N(c2ccc(Cl)nn2)C1O (stereo not drawn) [BD3] | 1 | 1 | 2 | 1 | 2 | 0 | – |
| CCO/C=C\c1cnc(N2C(=O)C(C)=C(Cl)C2O)cc1C(F)(F)F (stereo not drawn) [AA1] | 5 | 3 | 5 | 5 | 5 | 1 | – |
| CCCCNS(=O)(=O)c1cnc(N2C(=O)C(C)=C(OC)C2O)cc1C (stereo not drawn) [AD96] | 3 | 4 | 5 | 4 | 5 | 0 | – |
| CCc1cc(N2C(=O)C(C)=C(OC)C2O)ncc1-c1ccc(F)cc1F (stereo not drawn) [AD106] | 5 | 2 | 5 | 4 | 4 | 0 | – |
| COC1=C(C)C(=O)N(c2cc(N(C)C)ncn2)C1O (racemic) [CD7] | 2 | 0 | 2 | 0 | 0 | 0 | – |
| COC1=C(C)C(=O)N(c2cc(C(F)(F)F)c(C)cn2)C1O (stereo not drawn) [AD28] | 5 | 4 | 5 | 5 | 5 | 4 | – |
| COC1=C(C)C(=O)N(c2cc(C(F)(F)F)c(OC)cn2)C1O (stereo not drawn) [AD10, 2-hydroxy-3-methoxy-1-[5-methoxy-4-(trifluoromethyl)-2-pyridyl]-4-methyl-2H-pyrrol-5-one] | 5 | 5 | 5 | 5 | 5 | 2 | – |
| CCN(C)c1cc(N2C(=O)C(C)=C(OC)C2O)ncn1 (racemic) [CD6] | 3 | 2 | 3 | 0 | 2 | 0 | – |
| COC1=C(C)C(=O)N(c2nccc(C(F)(F)F)c2C#N)C1O (stereo not drawn) [AD5] | 5 | 4 | 5 | 4 | 4 | 2 | – |
| COC1=C(C)C(=O)N(c2cc(C)c(-c3ccccc3[N+](=O)[O-])cn2)C1O (stereo not drawn) [AD120] | 5 | 2 | 5 | 4 | 4 | 0 | – |
| COC1=C(C)C(=O)N(c2nccc(C(C)(C)C)n2)C1O (racemic) [DD1] | 4 | 4 | 4 | 5 | 4 | 1 | – |
| CC1=C(Cl)C(O)N(c2ccc(C)cn2)C1=O (stereo not drawn) [AA36] | – | 1 | 4 | 2 | 1 | 0 | 3 |
| CC1=C(Br)C(O)N(c2cc(C(F)(F)F)ccn2)C1=O (stereo not drawn) [AB1] | 3 | 2 | 5 | 3 | 4 | 0 | – |
| CC1=C(Cl)C(O)N(c2cc(Cl)c(Cl)cn2)C1=O (stereo not drawn) [AA16] | 0 | 1 | 0 | 1 | 3 | 1 | – |
| CCc1cc(N2C(=O)C(C)=C(OC)C2O)ncc1-c1cccc(C#N)c1 (stereo not drawn) [AD99] | 5 | 1 | 5 | 5 | 4 | 1 | – |
| CCc1cc(N2C(=O)C(C)=C(OC)C2O)ncc1-c1ccccc1[N+](=O)[O-] (stereo not drawn) [AD104] | 5 | 2 | 5 | 2 | 4 | 0 | – |
| COC1=C(C)C(=O)N(c2cc(C)c(-c3cc(F)c(F)c(F)c3)cn2)C1O (stereo not drawn) [AD114] | 4 | 2 | 5 | 1 | 3 | 0 | – |
| COC1=C(C)C(=O)N(c2cc(C(F)(F)F)c(Br)cn2)C1O (stereo not drawn) [AD31, 1-[5-bromo-4-(trifluoromethyl)-2-pyridyl]-2-hydroxy-3-methoxy-4-methyl-2H-pyrrol-5-one] | 5 | 5 | 5 | 5 | 4 | 1 | – |
| CCCOc1cnc(N2C(=O)C(C)=C(OC)C2O)cc1C(F)(F)F (stereo not drawn) [AD72] | 5 | 5 | 5 | 5 | 5 | 2 | – |
| COC1=C(C)C(=O)N(c2nccc(N(C)C)n2)C1O (racemic) [DD2] | 0 | 0 | 1 | 1 | 0 | 1 | – |
| COC1=C(C)C(=O)N(c2cc(C(C)(C)C)c(-c3cccc(C#N)c3)nn2)C1O (stereo not drawn) [BD14] | 4 | 4 | 5 | 3 | 4 | 1 | – |
